Data taken from patent US4209529A, “Farnesyl carboxylic acid α-bisabolol ester, a mucosal stabilizing composition and method of manufacturing the same” (Kotobuki Seiyaku Company Limited, priority 1977, dated 1980).

Legend:
[1] = cited from earlier work; for sedative or depressive activities: Ann. Pharm. France, 33, 229 ('75); for anti-inflammative and anti-ulcerative activities: literature
gastric epithelial cell = experiment: N-acetyl neuromatic acid (NANA) in gastric juice of pylorus-ligated rats (gastric epithelial cell stabilizing effect); format: in vivo, rat (male Donryu strain); design: unit not given here; conditions: 200 mg./kg. orally, three times a day for 5 days, and after pylorus ligation, 8 h ligation
Description: (§1) Male Donryu strain rats, weighing about 200 g., were divided into five groups. […] On the fifth day the animals were fasted for 24 hours, and submitted to pylorus ligation under light ether anethesia.
(§2) The drugs were given just after pylorus ligation orally. After 8 hours of ligation, the rats were sacrificed and gastric juice was collected.

[2] = test system: carrageenin-induced rat paw edema; experiment: Carrageenin-induced rat paw edema; format: in vivo, rat (Wistar); conditions: 300 mg./kg. per os
Description: To study the effect of the present compound on carrageenin-induced rat paw edema, the method of C. A. Winter (J. Pharmacol 141,369, (1963)) was applied. Wistar rats, weighing about 140 g. were used.
The present compound (III), α-bisabolol and farnesyl carboxylic acid were administered at a dosage of 300 mg./kg. (per os.) using a 1% CMC solution as the vehicle. The % inhibition was calculated as follows: [formula]

[3] = LD50 by the up and down method; format: in vivo; conditions: mouse, in vivo, po; per os; observations for 24 hours
Description: (§3) The LD50 value of the present compound in ddY strain mice was determined by the up and down method, with observations carried out for 24 hours.
(§4) The test drugs used in this experiment were suspended in 1% methyl cellulose and were given orally.

stress ulcer = experiment: Stress ulcer; format: in vivo, rat (male Wistar strain); conditions: 100 mg./kg. per os, 30 minutes before the stress; 18 hours stress
Description: To study the anti-ulcerative actions of the test drugs in experimental animals, the stress ulcer was selected. Male rats of the Wistar strain, weighing 200-250 g. were subjected to stress according to Takagi et. al. (Chem. Pharm. Bull 12,465. 1964). The four test drugs, the present compound (III), α-bisabolol (I), farnesyl carboxylic acid (II) and gefarnate were suspended in 1% methyl cellulose and were administered to the rats in a dose of 100 mg./kg. body weight per os, 30 minutes before the stress. The animals were placed in the stress box and immersed in water bath of 20°-25° C. to the level of the xiphoid process for 18 hours.
At the end of the stress the animals were removed from the stress box, killed by a blow on the head, and the stomach removed. The stomach was filled with 1% formalin solution, placed in 1% formalin solution for 15 minutes and was then cut open along the greater curvature and examined for lesions to obtain the ulcer index. The ulcer index was determined in six grades (0-5; 5 implying perforation of stomach).

aspirin ulcer = experiment: Aspirin-induced gastric mucosal lesion (aspirin ulcer); format: in vivo; conditions: aspirin 100 mg./kg. per os
Description: (§5) Each drug in Table 5, suspended with TWEEN 80 and 1% CMC solution, was given either intraduodenally immediately after pylorus ligation (aspirin ulcer) or orally (indomethacin ulcer) at the volume of 0.5 ml./100 g. Aspirin was given orally 10 min. after pylorus ligation. Indomethacin was given orally 10 min. after drug administration. All animals were sacrificed 7 hrs. after operation.

[4] = Other pharmacological experiment (mucosal stabilizing, anti-inflammative, wound-healing); conditions: another experiment, no data shown
ddY strain mice = experiment: LD50 by the up and down method; format: in vivo; conditions: per os; ratio of LD50
Description: as §3, §4

indomethacin ulcer = experiment: Indomethacin-induced gastric mucosal lesion (indomethacin ulcer); format: in vivo; conditions: 300 mg./kg. orally; indomethacin 20 mg./kg. per os
Description: The preventive activity of new compound (III) against the formation of gastric mucosal lesion induced by the gastric ulcerogenic, anti-inflammatory drugs, indomethacin and aspirin was evaluated according to Okabe et. al. (Jap. J. Pharmacol. 24 169 p. 1974, Amer. J. Dig. Dis. 20 626 1975).
as §5

gastric mucosa = experiment: Gastric errosion induced by 8 hours of pylorus ligation; format: in vivo, rat (male Donryu strain); conditions: 200 mg./kg. orally
Description: as §1, §2

Chemical stability = format: physicochemical
5-HT induced ulcer = experiment: 5-HT induced ulcer; format: in vivo, rat
Description: In the following experiments, the effects of test drugs on 5-HT induced ulcer were investigated. To induce the gastric lesion, rats were fasted for 24 hours before injection of 5-HT 30 mg./kg. S.C. The animals were sacrificed after 20 hours of 5-HT injections, and examined for lesion. The dose and route of administration of test drugs are the same as experiment 3. In the experiment, the area of lesions (mm.^2) were measured as the ulcer-index.

| Structure (SMILES) | sedative or depressive activities [1] | anti-inflammative and anti-ulcerative activities [1] | Amounts of NANA, bond (gastric epithelial cell) | Amounts of NANA, free (gastric epithelial cell) | Amounts of NANA, total (gastric epithelial cell) | Increase in % of paw edema [2] [%] | Maximum % Inhibition [2] [%] | increased rate of paw-edema (fraction) [2] | LD50 at 24 h [3] [mg/kg] | score (ulcer index, grades 0-5) (stress ulcer) | Inhibition (aspirin ulcer; 100 mg./kg. intraduodenally) [%] | Ulcer Index, means ± s.e. (aspirin ulcer; 100 mg./kg. intraduodenally) [mm.^2] | Inhibition (aspirin ulcer; 300 mg./kg. intraduodenally) [%] | Ulcer Index, means ± s.e. (aspirin ulcer; 300 mg./kg. intraduodenally) [mm.^2] | Inhibition (aspirin ulcer; 1000 mg./kg. intraduodenally) [%] | Ulcer Index, means ± s.e. (aspirin ulcer; 1000 mg./kg. intraduodenally) [mm.^2] | also measured |
| --- | --- | --- | --- | --- | --- | --- | --- | --- | --- | --- | --- | --- | --- | --- | --- | --- | --- |
| CC(C)=CCCC(C)(O)C1CC=C(C)CC1 (stereo not drawn) [α-Bisabolol, α-bisabolol] | sedative or depressive activities | anti-inflammative and anti-ulcerative activities | 136.3 | 12.4 | 148.7 | 88.1 | 11.9 | 0.881 | 3.67 | 4.0 ± 0.25 |  |  |  |  |  |  |  |
| CC(C)=CCC/C(C)=C/CC/C(C)=C/CCC(=O)OC/C=C(\C)CCC=C(C)C [Gefarnate] |  |  | 72.8 | 20.8 | 93.6 |  |  |  |  | 3.83 ± 0.73 | 22.3 | 23.7 ± 3.2 | 49.9 | 16.2 ± 2.9 | 49.5 | 15.4 ± 4.4 |  |
| CC(C)=CCCC(C)=CCCC(C)=CCC(=O)O [Farnesyl carboxylic acid, 4,8,12-trimethyl-3,7,11-tridecatrienoic acid] |  |  | 80.6 | 18.3 | 98.6 | 76.7 | 23.3 | 0.767 | 4.26 | 2.33 ± 0.84 |  |  |  |  |  |  |  |
| CC(C)=CCCC(C)=CCCC(C)=CCC(=O)OC(C)(CCC=C(C)C)C1CC=C(C)CC1 (stereo not shown) [Compound (III), 4,8,12-1,5-dimethyl-1-(4-methyl-3-cyclohexenyl)-4-hexenyl ester of 4,8,12-trimethyl-3,7,11-tridecatrienoic acid] |  |  | 71.8 | 16.2 | 88.9 | 60.4 | 39.6 | 0.604 | 24.1 | 1.5 ± 0.50 | 29.8 | 21.4 ± 4.4 | 44.6 | 16.9 ± 3.6 | 65.2 | 10.6 ± 2.2 | mucosal stabilizing, anti-inflammative and wound-healing activities [4]: possess mucosal stabilizing anti-inflammative, and wound-healing activities; toxicity, times less than that of α-bisabolol and farnesyl carboxylic acid (ddY strain mice): 6-7 times; Inhibition (indomethacin ulcer): 42.6%; Ulcer Index, means ± s.e. (indomethacin ulcer): 26.4 ± 5.4 mm.^2; damage to the gastric mucosa (gastric errosion) (gastric mucosa): did not produce any damage to the gastric mucosa; chemical stability (Chemical stability): chemically stable; inhibition of the occurrence of lesions (5-HT induced ulcer; 100 mg./kg.): inhibits the occurrence of lesions completely; Ulcer Index (area of lesions) (5-HT induced ulcer; 100 mg./kg. per os, 5-HT 30 mg./kg. S.C., 20 hours): 0 mm.^2 |
| C=CC(C)=CCC=C(C)CCC=C(C)C [farnesene] | sedative or depressive activities | anti-inflammative and anti-ulcerative activities |  |  |  |  |  |  |  |  |  |  |  |  |  |  |  |
